Here are results for 16 compounds from patent US8557813B2, “2-benzylpyridazinone derivatives as met kinase inhibitors” (Merck Patent GmbH, priority 2007, dated 2013).

Counter-ions that a name gives are not always drawn.

Assay [1] addresses T1, Met kinase (Homo sapiens, UniProt P08581). As to the kind of experiment: Met kinase inhibition, enzyme assay (flashplate method). In kind it is biochemical. On the set-up: 6His (N); purchased Upstate 14-526; host or cells: Sf21 insect cells (S. frugiperda), baculovirus. The source says:
According to the manufacturer's data (Met, active, upstate, catalogue No. 14-526), Met kinase is expressed for the purposes of protein production in insect cells (Sf21; S. frugiperda) and subsequent affinity-chromatographic purification as “N-terminal 6His-tagged” recombinant human protein in a baculovirus expression vector.
The test plates used are 96-well Flashplate® microtitre plates from Perkin Elmer (Cat. No. SMP200). The components of the kinase reaction described below are pipetted into the assay plate. The Met kinase and the substrate poly Ala-Glu-Lys-Tyr, (pAGLT, 6:2:5:1), are incubated for 3 hrs at room temperature with radioactively labelled ^33P-ATP in the presence and absence of test substances in a total volume of 100 μl. The reaction is terminated using 150 μl of a 60 mM EDTA solution. After incubation for a further 30 min at room temperature, the supernatants are filtered off with suction, and the wells are washed three times with 200 μl of 0.9% NaCl solution each time. The measurement of the bound radioactivity is carried out by means of a scintillation measuring instrument (Topcount NXT, Perkin-Elmer).
The full value used is the inhibitor-free kinase reaction. This should be approximately in the range 6000-9000 cpm. The pharmacological zero value used is staurosporin in a final concentration of 0.1 mM. The inhibitory values (IC50) are determined using the RS1_MTS program.
Kinase Reaction Conditions Per Well:
10 μl of substance to be tested in assay buffer with 10% of DMSO
10 μl of ATP (final concentration 1 μM cold, 0.35 μCi of ^33P-ATP)
50 μl of Met kinase/substrate mixture in assay buffer; • (10 ng of enzyme/well, 50 ng of pAGLT/well) • Solutions Used: • Assay buffer: • 50 mM HEPES • 3 mM magnesium chloride • 3 μM sodium orthovanadate • 3 mM manganese(II) chloride • 1 mM dithiothreitol (DTT) • pH=7.5 (to be set using sodium hydroxide) • Stop Solution: • 60 mM Titriplex III (EDTA) • ^33P-ATP: Perkin-Elmer; • Met kinase: Upstate, Cat. No. 14-526, Stock 1 μg/10 μl; spec. activity 954 U/mg; • Poly-Ala-Glu-Lys-Tyr, 6:2:5:1: Sigma Cat. No. P1152

Assay [2] deals with T1, Met kinase. Put plainly: Met kinase inhibition, cell assay. In kind it is cell-based.
The test system of assay [3] is TPR-Met/NIH3T3 cells. Put plainly: In-vivo test, TPR-Met/NIH3T3 tumor model in mice. To be noted: female Balb/C mice, s.c. TPR-Met/NIH3T3 tumors, 200 mg/kg daily by gastric tube, 9 days, tumor volume. The method, then:
Experimental Procedure: Female Balb/C mice (breeder: Charles River Wiga) were 5 weeks old on arrival. They were acclimatized to our keeping conditions for 7 days. Each mouse was subsequently injected subcutaneously in the pelvic area with 4 million TPR-Met/NIH3T3 cells in 100 μl of PBS (without Ca++ and Mg++). […] 100 μl of vehicle (0.25% methylcellulose/100 mM acetate buffer, pH 5.5) were administered daily to the control group, and 200 mg/kg of “A56” or “A91” dissolved in the vehicle (volume likewise 100 μl/animal) were administered daily to the treatment groups, in each case by gastric tube.
Measurement of the tumor volume: The length (L) and breadth (B) were measured using a Vernier calliper, and the tumor volume was calculated from the formula L×B×B/2.
Keeping conditions: 4 or 5 animals per cage, feeding with commercial mouse food (Sniff).

T1 sequence (P08581 25-1390): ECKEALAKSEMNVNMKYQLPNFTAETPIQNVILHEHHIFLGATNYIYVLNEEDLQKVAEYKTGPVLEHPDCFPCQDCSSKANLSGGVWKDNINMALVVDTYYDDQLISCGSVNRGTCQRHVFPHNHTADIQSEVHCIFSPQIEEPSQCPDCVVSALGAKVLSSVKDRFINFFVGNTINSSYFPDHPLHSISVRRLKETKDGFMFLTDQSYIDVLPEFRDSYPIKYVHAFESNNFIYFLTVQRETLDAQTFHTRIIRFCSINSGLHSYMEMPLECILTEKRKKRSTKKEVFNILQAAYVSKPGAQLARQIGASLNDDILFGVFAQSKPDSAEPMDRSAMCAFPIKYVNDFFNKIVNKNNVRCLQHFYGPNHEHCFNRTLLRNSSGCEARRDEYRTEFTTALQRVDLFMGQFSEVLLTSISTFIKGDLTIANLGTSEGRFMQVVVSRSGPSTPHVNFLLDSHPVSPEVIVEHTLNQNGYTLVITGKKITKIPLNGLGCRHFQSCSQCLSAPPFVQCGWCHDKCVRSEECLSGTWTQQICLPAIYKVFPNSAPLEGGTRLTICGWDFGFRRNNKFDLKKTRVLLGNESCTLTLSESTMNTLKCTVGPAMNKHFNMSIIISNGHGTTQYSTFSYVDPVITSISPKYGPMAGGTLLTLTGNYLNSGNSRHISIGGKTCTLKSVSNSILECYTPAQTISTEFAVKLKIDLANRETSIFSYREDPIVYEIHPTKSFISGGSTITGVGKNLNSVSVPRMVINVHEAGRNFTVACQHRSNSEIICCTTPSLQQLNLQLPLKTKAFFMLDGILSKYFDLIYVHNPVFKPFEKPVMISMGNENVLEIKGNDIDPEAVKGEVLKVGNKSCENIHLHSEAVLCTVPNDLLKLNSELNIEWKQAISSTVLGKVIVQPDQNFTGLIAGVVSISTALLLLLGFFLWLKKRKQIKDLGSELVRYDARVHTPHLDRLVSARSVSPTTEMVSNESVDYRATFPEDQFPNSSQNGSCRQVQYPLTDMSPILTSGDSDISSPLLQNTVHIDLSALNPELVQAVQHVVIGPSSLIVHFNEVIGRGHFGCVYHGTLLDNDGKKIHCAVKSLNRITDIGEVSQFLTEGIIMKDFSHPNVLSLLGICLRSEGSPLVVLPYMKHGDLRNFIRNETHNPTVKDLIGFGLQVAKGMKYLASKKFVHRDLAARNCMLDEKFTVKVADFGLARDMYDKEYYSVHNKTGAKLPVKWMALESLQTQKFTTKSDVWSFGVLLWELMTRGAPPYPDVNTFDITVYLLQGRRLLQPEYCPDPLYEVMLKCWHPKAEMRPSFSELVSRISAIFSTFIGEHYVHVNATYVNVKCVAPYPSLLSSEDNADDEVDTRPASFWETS

Turning to `O=c1ccc(C2CC2)nn1Cc1cccc(-c2ncc(Br)cn2)c1` [Compound A1, 2-[3-(5-bromopyrimidin-2-yl)benzyl]-6-cyclopropyl-2H-pyridazin-3-one], the half-maximal inhibitory concentration (IC50) (usually the concentration that gives 50% inhibition) in assay [1] lay in the range of 0.001 to 0.1 µM; in assay [2], 0.1 to 10 µM.

On to `O=c1ccc(C2CC2)nn1Cc1cccc(-c2ncc(-c3cnn(CCN4CCCC4)c3)cn2)c1` [Compound A2, 6-cyclopropyl-2-(3-{5-[1-(2-pyrrolidin-1-ylethyl)-1H-pyrazol-4-yl]pyrimidin-2-yl}benzyl)-2H-pyridazin-3-one], for which the IC50 in assay [1] and in assay [2] was 0.001 to 0.1 µM throughout.

Consider `O=c1ccc(C2CC2)nn1Cc1cccc(-c2ncc(-c3cnn(CCN4CCOCC4)c3)cn2)c1` [Compound A3, 6-cyclopropyl-2-(3-{5-[1-(2-morpholin-4-ylethyl)-1H-pyrazol-4-yl]-pyrimidin-2-yl}benzyl)-2H-pyridazin-3-one], for which the IC50 in assay [1] and in assay [2] was 0.001 to 0.1 µM in each case.

`Cc1cnc(-c2cccc(Cn3nc(C4CC4)ccc3=O)c2)nc1` [Compound A4, 6-cyclopropyl-2-[3-(5-methylpyrimidin-2-yl)benzyl]-2H-pyridazin-3-one]: the figures for the IC50 in assay [1] and in assay [2] were 0.001 to 0.1 µM and 0.1 to 10 µM, respectively.

As for `O=c1ccc(C2CC2)nn1Cc1cccc(-c2ncc(-c3cnn(C4CCNCC4)c3)cn2)c1` [Compound A5, 6-cyclopropyl-2-{3-[5-(1-piperidin-4-yl-1H-pyrazol-4-yl)-pyrimidin-2-yl]benzyl}-2H-pyridazin-3-one], the IC50 in assay [1] and in assay [2] was 0.001 to 0.1 µM each time.

As to `Cc1ccc(=O)n(Cc2cccc(-c3ncc(-c4cnn(C5CCNCC5)c4)cn3)c2)n1` [Compound A6, 6-methyl-2-{3-[5-(1-piperidin-4-yl-1H-pyrazol-4-yl)pyrimidin-2-yl]benzl}-2H-pyridazin-3-one], the results for the IC50 in assay [1] and in assay [2] were 0.001 to 0.1 µM and 0.1 to 10 µM, respectively.

As for `Cc1nc(-c2cccc(Cn3nc(C4CC4)ccc3=O)c2)no1` [Compound A7, 6-cyclopropyl-2-[3-(5-methyl-1,2,4-oxadiazol-3-yl)benzyl]-2H-pyridazin-3-one], the IC50 was 0.1 to 10 µM in assay [1] and more than 10 µM in assay [2].

On to `CN(C)CCCOc1cnc(-c2cccc(Cn3nc(C4CC4)ccc3=O)c2)nc1` [Compound A8, 6-cyclopropyl-2-{3-[5-(3-dimethylaminopropoxy)pyrimidin-2-yl]benzyl}-2H-pyridazin-3-one], for which the IC50 in assay [1] and in assay [2] was 0.001 to 0.1 µM each time.

Consider `CN1CCC(Oc2cnc(-c3cccc(Cn4nc(C5CC5)ccc4=O)c3)nc2)CC1` [Compound A9, 6-cyclopropyl-2-{3-[5-(1-methylpiperidin-4-yloxy)pyrimidin-2-yl]benzyl}-2H-pyridazin-3-one], for which the IC50 in assay [1] and in assay [2] was 0.001 to 0.1 µM each time.

With `CC(C)c1ccc(=O)n(Cc2cccc(-c3ncc(OCCCN(C)C)cn3)c2)n1` [Compound A10, 2-{3-[5-(3-dimethylaminopropoxy)pyrimidin-2-yl]benzyl}-6-isopropyl-2H-pyridazin-3-one formate], the concentration for half-maximal inhibition (IC50) fell in the range of 0.001 to 0.1 µM in assay [1] and 0.1 to 10 µM in assay [2].

Turning to `O=c1ccc(C2CC2)nn1Cc1cccc(-c2ncc(OC3CCNCC3)cn2)c1` [Compound A11, 6-cyclopropyl-2-{3-[5-(piperidin-4-yloxy)pyrimidin-2-yl]benzyl}-2H-pyridazin-3-one], the IC50 lay within 0.001 to 0.1 µM in assay [1] and 0.1 to 10 µM in assay [2].

In the case of `CN1CCN(c2cnc(-c3cccc(Cn4nc(C5CC5)ccc4=O)c3)nc2)CC1` [Compound A12, 6-cyclopropyl-2-{3-[5-(4-methylpiperazin-1-yl)pyrimidin-2-yl]benzyl}-2H-pyridazin-3-one], the concentration for half-maximal inhibition (IC50) in assay [1] and in assay [2] was 0.001 to 0.1 µM throughout.

On to `CC(C)c1ccc(=O)n(Cc2cccc(-c3ncc(-c4cnn(CCN5CCOCC5)c4)cn3)c2)n1` [Compound A13, 6-isopropyl-2-(3-{5-[1-(2-morpholin-4-ylethyl)-1H-pyrazol-4-yl]pyrimidin-2-yl}benzyl)-2H-pyridazin-3-one], for which the IC50 in assay [1] was 0.001 to 0.1 µM; in assay [2] it was 0.1 to 10 µM.

Take `O=c1cccnn1Cc1cccc(-c2ncc(-c3cnn(CCN4CCOCC4)c3)cn2)c1` [Compound A14, 2-(3-{5-[1-(2-morpholin-4-ylethyl)-1H-pyrazol-4-yl]pyrimidin-2-yl}benzyl)-2H-pyridazin-3-one]: the concentration for half-maximal inhibition (IC50) in assay [1] lay within 0.001 to 0.1 µM; in assay [2], 0.1 to 10 µM.

Consider `O=c1ccc(C2CCC2)nn1Cc1cccc(-c2ncc(-c3cnn(CCN4CCCC4)c3)cn2)c1` [Compound A15, 6-cyclobutyl-2-(3-{5-[1-(2-pyrrolidin-1-ylethyl)-1H-pyrazol-4-yl]pyrimidin-2-yl}benzyl)-2H-pyridazin-3-one], for which the concentration for half-maximal inhibition (IC50) in assay [1] and in assay [2] was 0.001 to 0.1 µM throughout.

With `Nc1cnc(-c2cccc(Cn3nc(C4CC4)ccc3=O)c2)nc1` [Compound A18, 2-[3-(5-aminopyrimidin-2-yl)benzyl]-6-cyclopropyl-2H-pyridazin-3-one], the antitumoral action entry in assay [3] is “significant antitumoral action”. Further, the IC50 in assay [1] and in assay [2] was 0.1 to 10 µM each time.
